{"source": "paper PMC9854251", "about": "(Biochemistry, 2022)", "key": {"[1]": {"biological_target": "T1, hHINT2 R99Q (Homo sapiens, UniProt Q9BX68, R99Q)", "T1 sequence (Q9BX68 37-163 R99Q limits assumed)": "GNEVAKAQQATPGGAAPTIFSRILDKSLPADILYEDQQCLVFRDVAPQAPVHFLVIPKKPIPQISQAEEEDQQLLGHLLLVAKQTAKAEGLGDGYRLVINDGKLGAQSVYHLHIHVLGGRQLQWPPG", "experiment": "Isothermal titration calorimetry, hHINT2 R99Q", "assay_type": "binding"}, "[2]": {"biological_target": "T2, hHINT2 WT (Homo sapiens, UniProt Q9BX68)", "T2 sequence (Q9BX68 37-163 limits assumed)": "as the sequence (Q9BX68 37-163 R99Q limits assumed) above, with Q63R counted along it", "experiment": "Isothermal titration calorimetry, hHINT2 WT", "assay_type": "binding"}, "[3]": {"system": "hHINT1 WT", "details": "ITC; cited from earlier work"}, "[4]": {"biological_target": "hHINT2 (Homo sapiens, UniProt Q9BX68)", "sequence (Q9BX68 37-163 limits assumed)": "as the sequence (Q9BX68 37-163 R99Q limits assumed) above, with Q63R counted along it", "experiment": "Time course simulation", "assay_type": "biochemical"}, "[5]": {"biological_target": "T1, hHINT2 R99Q", "experiment": "Steady-state kinetics assay", "assay_type": "biochemical", "details": "steady-state 25 °C"}, "[6]": {"biological_target": "hHINT1 (Homo sapiens, UniProt P49773)", "sequence (P49773 whole entry)": "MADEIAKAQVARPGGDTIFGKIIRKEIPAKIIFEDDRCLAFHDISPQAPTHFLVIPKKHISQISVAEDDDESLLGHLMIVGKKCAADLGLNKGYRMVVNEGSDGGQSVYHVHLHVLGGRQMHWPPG", "experiment": "Time course simulation", "assay_type": "biochemical"}, "[7]": {"biological_target": "T3, hHINT1 Q62A (Homo sapiens, UniProt P49773, Q62A)", "T3 sequence (P49773 whole entry Q62A)": "as the sequence (P49773 whole entry) above, with Q62A counted along it", "experiment": "Steady-state kinetics assay", "assay_type": "biochemical"}, "[8]": {"biological_target": "T4, hHINT2 R99A (Homo sapiens, UniProt Q9BX68, R99A)", "T4 sequence (Q9BX68 37-163 R99A limits assumed)": "as the sequence (Q9BX68 37-163 R99Q limits assumed) above, with Q63A counted along it", "experiment": "Steady-state kinetics assay", "assay_type": "biochemical"}, "[9]": {"system": "hHINT1 WT", "details": "steady-state 25 °C, cited from earlier work"}, "[10]": {"biological_target": "T1, hHINT2 R99Q", "experiment": "Stopped-flow burst-phase adenylation kinetics, hHINT2 R99Q", "assay_type": "biochemical"}, "[11]": {"biological_target": "T5, hHINT1 Q62R (Homo sapiens, UniProt P49773, Q62R)", "T5 sequence (P49773 whole entry Q62R)": "as the sequence (P49773 whole entry) above, with Q62R counted along it", "experiment": "Steady-state kinetics assay", "assay_type": "biochemical", "details": "steady-state 25 °C"}, "[12]": {"biological_target": "T4, hHINT2 R99A", "experiment": "Stopped-flow burst-phase adenylation kinetics, hHINT2 R99A", "assay_type": "biochemical"}, "[13]": {"system": "hHINT1 WT", "details": "cited from earlier work"}, "[14]": {"biological_target": "T2, hHINT2 WT", "experiment": "Stopped-flow burst-phase adenylation kinetics, hHINT2 WT", "assay_type": "biochemical"}, "[15]": {"biological_target": "T5, hHINT1 Q62R", "experiment": "Stopped-flow burst-phase adenylation kinetics, hHINT1 Q62R", "assay_type": "biochemical"}, "[16]": {"biological_target": "T3, hHINT1 Q62A", "experiment": "Stopped-flow burst-phase adenylation kinetics, hHINT1 Q62A", "assay_type": "biochemical"}, "[17]": {"details": "pH 7.2, read-out: k1, E+TpAd ⇆ E•TpAd"}, "[18]": {"details": "pH 7.2, read-out: k−1, E+TpAd ⇆ E•TpAd"}, "[19]": {"details": "time course simulation, 4.3 °C, hHINT2"}, "[20]": {"details": "time course simulation, 4.3 °C, hHINT2, k4 and k5 can be interchanged without altering the fit"}, "[21]": {"details": "time course simulation, 4.3 °C, hHINT1"}, "[22]": {"details": "time course simulation, 4.3 °C, hHINT1, k4 and k5 can be interchanged without altering the fit"}}, "note": "Where “and” joins values, the source holds several entries; their conditions need not be identical. Identical values can stand only once.", "data": [{"smiles": "O=C(CCc1c[nH]c2ccccc12)NS(=O)(=O)OC[C@H]1O[C@@H](n2cnc3c2ncn2ccnc32)[C@H](O)[C@@H]1O", "note": "[Inhibitor 1]", "values": [{"measurement": "Kd", "setting": "[1]", "value": "6.94 ± 0.51", "unit": "µM"}, {"measurement": "-TΔS", "setting": "[1]; ITC 25 °C, pH 7.2, hHINT2 R99Q", "value": "7.68 ± 0.55", "unit": "kcal/mol"}, {"measurement": "n (binding stoichiometry)", "setting": "[1]; ITC 25 °C, pH 7.2, hHINT2 R99Q", "value": 1.1}, {"measurement": "ΔH", "setting": "[1]; ITC 25 °C, pH 7.2, hHINT2 R99Q", "value": "-14.72 ± 0.10", "unit": "kcal/mol"}, {"measurement": "Kd", "setting": "[2]", "value": "9.43 ± 0.45", "unit": "µM"}, {"measurement": "ΔH", "setting": "[2]; ITC 25 °C, 10 mM Tris, 150 mM NaCl, pH 7.2, hHINT2 WT", "value": "-10.54 ± 0.16", "unit": "kcal/mol"}, {"measurement": "-TΔS", "setting": "[2]; ITC 25 °C, pH 7.2, hHINT2 WT", "value": "3.69 ± 0.17", "unit": "kcal/mol"}, {"measurement": "n (binding stoichiometry)", "setting": "[2]; ITC 25 °C, pH 7.2, hHINT2 WT", "value": 0.80}, {"measurement": "ΔG", "setting": "[2]; ITC 25 °C, pH 7.2, hHINT2 WT", "value": "-6.84 ± 0.32", "unit": "kcal/mol"}, {"measurement": "-TΔS", "setting": "[3]", "value": "8.19 ± 0.13", "unit": "kcal/mol"}]}, {"smiles": "Nc1ncnc2c1ncn2[C@@H]1O[C@H](COP(=O)(O)NCCc2c[nH]c3ccccc23)[C@@H](O)[C@H]1O", "note": "[TpAd, adenosine tryptamine phosphoramidate monoester]", "values": [{"measurement": "fluorescence of bound TpAd relative to unquenched tryptamine", "setting": "[4]; TpAd bound to hHINT2, constraint giving excellent simulations", "value": "~ 75%"}, {"measurement": "kon", "setting": "[4]; [17]", "value": "> 5e+07", "unit": "M⁻¹ s⁻¹"}, {"measurement": "koff", "setting": "[4]; [18]", "value": "> 60", "unit": "s⁻¹"}, {"measurement": "k2, E•TpAd ⇆ E-NMP•Tp", "setting": "[4]; [19]", "value": "60.8 ± 2.5", "unit": "s⁻¹"}, {"measurement": "k3, E-NMP•Tp ⇆ E-NMP + Tp", "setting": "[4]; [19]", "value": ">1640", "unit": "s⁻¹"}, {"measurement": "k−2, E•TpAd ⇆ E-NMP•Tp", "setting": "[4]; [19]", "value": 0}, {"measurement": "k−3, E-NMP•Tp ⇆ E-NMP + Tp", "setting": "[4]; [19]", "value": 0}, {"measurement": "k−4, E-NMP + H20 ⇆ E’-NMP", "setting": "[4]; [19]", "value": 0}, {"measurement": "k−5, E’-NMP ⇆ E + NMP", "setting": "[4]; [19]", "value": 0}, {"measurement": "k4, E-NMP + H20 ⇆ E’-NMP", "setting": "[4]; [20]", "value": "1.34 s^−1 ± 0.14 s^−1"}, {"measurement": "k5, E’-NMP ⇆ E + NMP", "setting": "[4]; [20]", "value": ">34", "unit": "s⁻¹"}, {"measurement": "Km R99Q/WT Ratio", "setting": "[5]", "value": 0.92}, {"measurement": "kcat R99Q/WT Ratio", "setting": "[5]", "value": 1.04}, {"measurement": "kcat/Km R99Q/WT Ratio", "setting": "[5]", "value": 1.18}, {"measurement": "kon", "setting": "[6]; [17]", "value": "> 9.5e+06", "unit": "M⁻¹ s⁻¹"}, {"measurement": "koff", "setting": "[6]; [18]", "value": "> 60", "unit": "s⁻¹"}, {"measurement": "k2, E•TpAd ⇆ E-NMP•Tp", "setting": "[6]; [21]", "value": "56.5 ± 2.5", "unit": "s⁻¹"}, {"measurement": "k3, E-NMP•Tp ⇆ E-NMP + Tp", "setting": "[6]; [21]", "value": ">2000", "unit": "s⁻¹"}, {"measurement": "k−2, E•TpAd ⇆ E-NMP•Tp", "setting": "[6]; [21]", "value": 0}, {"measurement": "k−3, E-NMP•Tp ⇆ E-NMP + Tp", "setting": "[6]; [21]", "value": 0}, {"measurement": "k−4, E-NMP + H20 ⇆ E’-NMP", "setting": "[6]; [21]", "value": 0}, {"measurement": "k−5, E’-NMP ⇆ E + NMP", "setting": "[6]; [21]", "value": 0}, {"measurement": "k4, E-NMP + H20 ⇆ E’-NMP", "setting": "[6]; [22]", "value": "0.41 ± 0.03", "unit": "s⁻¹"}, {"measurement": "k5, E’-NMP ⇆ E + NMP", "setting": "[6]; [22]", "value": ">100", "unit": "s⁻¹"}, {"measurement": "kcat decrease, hHINT1 Q62A vs wild-type", "setting": "[7]; steady-state", "value": 5, "unit": "fold"}, {"measurement": "Km Q62A/WT Ratio", "setting": "[7]; steady-state 25 °C, hHINT1", "value": 0.12}, {"measurement": "kcat Q62A/WT Ratio", "setting": "[7]; steady-state 25 °C, hHINT1", "value": 0.21}, {"measurement": "kcat/Km Q62A/WT Ratio", "setting": "[7]; steady-state 25 °C, hHINT1", "value": 1.87}, {"measurement": "decrease in steady-state turnover, hHINT2 R99A vs wild-type", "setting": "[8]; steady-state", "value": 2, "unit": "fold"}, {"measurement": "Km R99A/WT Ratio", "setting": "[8]; steady-state 25 °C, hHINT2", "value": 0.75}, {"measurement": "kcat R99A/WT Ratio", "setting": "[8]; steady-state 25 °C, hHINT2", "value": 0.46}, {"measurement": "kcat/Km R99A/WT Ratio", "setting": "[8]; steady-state 25 °C, hHINT2", "value": 0.65}, {"measurement": "Km", "setting": "[9]", "value": "0.13 ± 0.02", "unit": "µM"}, {"measurement": "kcat", "setting": "[9]; substrate turnover", "value": "2.1 ± 0.1", "unit": "s⁻¹"}, {"measurement": "Kd", "setting": "[10]", "value": "5.45 ± 0.6", "unit": "µM"}, {"measurement": "KD R99Q/WT Ratio", "setting": "[10]; burst phase 4 °C, hHINT2", "value": 1.00}, {"measurement": "k2 R99Q/WT Ratio", "setting": "[10]; burst phase 4 °C, hHINT2", "value": 1.04}, {"measurement": "k2 (adenylation rate constant)", "setting": "[10]; burst phase 4 °C, hHINT2 R99Q", "value": "93.2 ± 5.0", "unit": "s⁻¹"}, {"measurement": "kcat Q62R/WT Ratio", "setting": "[11]", "value": 0.67}, {"measurement": "kcat/Km Q62R/WT Ratio", "setting": "[11]", "value": 0.73}, {"measurement": "Kd", "setting": "[12]", "value": "6 ± 0.47", "unit": "µM"}, {"measurement": "KD R99A/WT Ratio", "setting": "[12]; burst phase 4 °C, hHINT2", "value": 1.10}, {"measurement": "k2 R99A/WT Ratio", "setting": "[12]; burst phase 4 °C, hHINT2", "value": 0.96}, {"measurement": "k2 (adenylation rate constant)", "setting": "[12]; burst phase 4 °C, hHINT2 R99A", "value": "86.4 ± 6.1", "unit": "s⁻¹"}, {"measurement": "k2 (adenylation rate constant)", "setting": "[13]; burst phase 25 °C", "value": "203 s⁻¹ and 203 ± 13 s⁻¹"}, {"measurement": "Kd", "setting": "[13]; read-out: KD (substrate binding), burst phase 25 °C", "value": "13 ± 2", "unit": "µM"}, {"measurement": "Kd", "setting": "[14]", "value": "5.44 ± 0.58", "unit": "µM"}, {"measurement": "k2 (adenylation rate constant)", "setting": "[14]; burst phase 4 °C, hHINT2 WT", "value": "89.7 s⁻¹ and 89.7 ± 5.1 s⁻¹"}, {"measurement": "Kd", "setting": "[15]", "value": "2.9 ± 0.2", "unit": "µM"}, {"measurement": "KD Q62R/WT Ratio", "setting": "[15]; burst phase 25 °C, hHINT1", "value": 0.2}, {"measurement": "k2 Q62R/WT Ratio", "setting": "[15]; burst phase 25 °C, hHINT1", "value": 0.89}, {"measurement": "k2 (adenylation rate constant)", "setting": "[15]; burst phase 25 °C, hHINT1 Q62R", "value": "180 ± 9", "unit": "s⁻¹"}, {"measurement": "Kd", "setting": "[16]", "value": "4.9 ± 0.5", "unit": "µM"}, {"measurement": "k2 Q62A/WT Ratio", "setting": "[16]; burst phase 25 °C, hHINT1", "value": 0.85}, {"measurement": "k2 (adenylation rate constant)", "setting": "[16]; burst phase 25 °C, hHINT1 Q62A", "value": "172 ± 6", "unit": "s⁻¹"}]}]}
